23 compounds from PubChem BioAssay (NCI) can be followed below.

Some test systems named below: A549 NSCLC; ACHN renal; COLO 205 colon; KM12 colon; RPMI-8226 leukemia; SF-295 CNS; SK-MEL-2 melanoma; SN12C renal; HCT-116 colon.
Holding throughout (assay): inhibition of tumour cell growth, NCI panel, 48 h

Molecules are shown by their SMILES.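 Cultured in 96-well plates, cells were exposed to test compound for 48 hours across five concentrations. GI50: concentration for 50% inhibition of growth. TGI marks complete inhibition of growth.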 Some results are limits rather than exact numbers.

In the case of `Cc1nc(-c2cccnc2)sc1C(=O)/C=C/c1ccc(Cl)cc1Cl`, the TGI with A549 NSCLC, in the assay with ACHN renal, with COLO 205 colon, with KM12 colon, in the assay on RPMI-8226 leukemia and with SF-295 CNS was above 100 µM each time. For the same compound, the TGI in the assay with SK-MEL-2 melanoma and in the assay with SN12C renal was above 100 µM each time.
In the case of `NC(=O)NC(=O)C1CCC(=O)N1S(=O)(=O)c1ccc(Cl)cc1` (centres undefined), the TGI in the assay with A549 NSCLC, in the assay with ACHN renal, in the assay on COLO 205 colon, with HCT-116 colon, with KM12 colon and in the assay on RPMI-8226 leukemia was above 100 µM in each case. For the same compound, the TGI in the assay with SF-295 CNS, in the assay with SK-MEL-2 melanoma and in the assay with SN12C renal was above 100 µM throughout.
On to `CCOC(=O)NC/C=C/CO`, for which the TGI in the assay with A549 NSCLC, with ACHN renal, in the assay with COLO 205 colon, in the assay on HCT-116 colon, in the assay on KM12 colon and with RPMI-8226 leukemia was above 100 µM in each case. Also, the TGI in the assay on SK-MEL-2 melanoma and in the assay on SN12C renal was above 100 µM each time.
Consider `CCCCCCCCCCCCCCCC(=O)NCC(OCC)OCC`, for which the TGI with A549 NSCLC, in the assay on ACHN renal, in the assay on COLO 205 colon, with HCT-116 colon, in the assay with KM12 colon and in the assay with SF-295 CNS was above 100 µM each time. In addition, the TGI with SK-MEL-2 melanoma and with SN12C renal was above 100 µM throughout.
In the case of `CCOC(=O)C1C(=O)C(=O)N2CCc3c([nH]c4ccccc34)C12` (centres undefined), the TGI in the assay with A549 NSCLC, in the assay with COLO 205 colon, in the assay on HCT-116 colon, with KM12 colon, with RPMI-8226 leukemia and in the assay with SF-295 CNS was above 100 µM in each case. Also, the TGI with SK-MEL-2 melanoma and in the assay with SN12C renal was above 100 µM throughout.
As to `Nc1nc(N)c(-c2ccccc2)c(C(=O)Nc2nccs2)n1`, the TGI with A549 NSCLC, with ACHN renal, with COLO 205 colon, in the assay on HCT-116 colon, in the assay on KM12 colon and in the assay on SF-295 CNS was above 100 µM each time. The TGI in the assay with SK-MEL-2 melanoma and with SN12C renal was above 100 µM throughout.
With `CN(C)c1ccc(/C=C2\Cc3ccccc3C2=O)cc1Br`, the TGI in the assay on A549 NSCLC was above 100 µM; in the assay on ACHN renal, above 100 µM; in the assay with COLO 205 colon it was above 100 µM; in the assay with KM12 colon, above 100 µM; in the assay on RPMI-8226 leukemia, 84.3 µM; in the assay with SF-295 CNS, above 100 µM. Moreover, the TGI in the assay with SK-MEL-2 melanoma and with SN12C renal was above 100 µM each time.
With `O=[N+]([O-])c1cccc(C2=NOC3CCCC23)c1` (centres undefined), the TGI in the assay with A549 NSCLC, in the assay on ACHN renal, in the assay with COLO 205 colon, in the assay on HCT-116 colon, in the assay on KM12 colon and in the assay on RPMI-8226 leukemia was above 100 µM in each case. Also, the TGI in the assay on SF-295 CNS, in the assay on SK-MEL-2 melanoma and in the assay on SN12C renal was above 100 µM in each case.
Regarding `O=[N+]([O-])C1(CO)COC(CCc2ccccc2)OC1` (centres undefined), the TGI with A549 NSCLC, in the assay with ACHN renal, in the assay on HCT-116 colon, in the assay with KM12 colon, in the assay on SF-295 CNS and with SK-MEL-2 melanoma was above 100 µM throughout. The same compound came in with a TGI in the assay with SN12C renal above 100 µM.
Turning to `CC(=O)OCC1OC(OC(C)=O)C(NC#N)C(OC(C)=O)C1OC(C)=O` (centres undefined), the TGI in the assay on A549 NSCLC, with ACHN renal, with COLO 205 colon, with HCT-116 colon, in the assay on KM12 colon and in the assay on RPMI-8226 leukemia was above 100 µM each time. Also, the TGI with SF-295 CNS, with SK-MEL-2 melanoma and with SN12C renal was above 100 µM throughout.
Turning to `O=C1NC2(CCCCC2)C2=C1CCCCC2`, the TGI in the assay with A549 NSCLC, in the assay with ACHN renal, in the assay on COLO 205 colon, with HCT-116 colon, in the assay on KM12 colon and in the assay with SF-295 CNS was above 100 µM each time. The TGI in the assay with SK-MEL-2 melanoma and with SN12C renal was above 100 µM throughout.
Consider `COC(=O)N/N=C(\c1nc2ccc(Cl)cc2[nH]c1=O)C(O)c1ccc([N+](=O)[O-])cc1` (centres undefined), for which the TGI with A549 NSCLC, in the assay with COLO 205 colon, with HCT-116 colon, in the assay on KM12 colon, in the assay with RPMI-8226 leukemia and with SF-295 CNS was above 100 µM each time. The compound further showed a TGI with SN12C renal above 100 µM.
As to `CN1C/C(=C\c2ccco2)c2nc(N)nc(-c3ccco3)c2C1`, the TGI in the assay with A549 NSCLC, with ACHN renal, with COLO 205 colon, with HCT-116 colon, with KM12 colon and with RPMI-8226 leukemia was above 100 µM each time. Besides, the TGI with SF-295 CNS, with SK-MEL-2 melanoma and in the assay on SN12C renal was above 100 µM in each case.
Turning to `Cc1c(C(=O)C/C(=N/NC(=O)CC#N)C(N)=O)[n+](=O)c2ccccc2n1[O-]`, the TGI is above 100 µM in the assay with A549 NSCLC; above 100 µM in the assay with ACHN renal; above 100 µM in the assay with COLO 205 colon; 94 µM in the assay with HCT-116 colon; above 100 µM in the assay with KM12 colon; above 100 µM with RPMI-8226 leukemia. For the same compound, the results for the TGI with SF-295 CNS, with SK-MEL-2 melanoma and in the assay on SN12C renal were above 100 µM, above 100 µM and 97.7 µM, respectively.
Consider `CC1=C2[C@@H](c3ccccc3)C3C=CC2(C=C3C(F)(F)F)N(C(=O)NC2CCCCC2)C1=O` (some centres undefined), for which the TGI with A549 NSCLC, with ACHN renal, with COLO 205 colon, in the assay with HCT-116 colon, in the assay on KM12 colon and in the assay on SF-295 CNS was above 100 µM each time. Also, the TGI with SN12C renal is above 100 µM.
Regarding `COc1cccc(OC)c1/C=N\N1C(=O)c2ccccc2C1=O`, the TGI is above 100 µM in the assay with A549 NSCLC; above 100 µM in the assay with ACHN renal; 87.6 µM in the assay with HCT-116 colon; above 100 µM with KM12 colon; above 100 µM in the assay on RPMI-8226 leukemia; above 100 µM in the assay on SF-295 CNS. Moreover, the TGI in the assay on SK-MEL-2 melanoma and with SN12C renal was above 100 µM throughout.
`CCOC(=O)C1=C(O)c2c(OC)ccc(OC)c2C(=O)C1=O`: the TGI in the assay with A549 NSCLC, in the assay with ACHN renal, with COLO 205 colon, in the assay on HCT-116 colon, in the assay with KM12 colon and in the assay on RPMI-8226 leukemia was above 100 µM each time. Further, the TGI in the assay with SF-295 CNS, in the assay with SK-MEL-2 melanoma and in the assay with SN12C renal was above 100 µM throughout.
As for `O=C(/C=C/c1ccc(OCC(=O)N2CCN(c3ccccc3)CC2)cc1)c1ccccc1`, the TGI with A549 NSCLC was above 100 µM; with ACHN renal, above 89.6 µM; in the assay with COLO 205 colon, above 100 µM; with HCT-116 colon it was above 56.6 µM; in the assay with KM12 colon it was above 75 µM; in the assay on RPMI-8226 leukemia, above 27.2 µM. Moreover, the TGI in the assay on SF-295 CNS is above 100 µM; in the assay with SK-MEL-2 melanoma, above 60.4 µM; in the assay on SN12C renal it was above 100 µM.
Regarding `CCCCc1c2c(nc3c1CC/C(=C\c1ccccc1)C3=O)CCCC2`, the TGI came to 28 µM in the assay with A549 NSCLC; 25.9 µM with ACHN renal; 23.1 µM in the assay with COLO 205 colon; 16.1 µM in the assay with HCT-116 colon; 13.5 µM in the assay on KM12 colon; 7.04 µM in the assay on RPMI-8226 leukemia. Further, the values for the TGI in the assay on SF-295 CNS and in the assay on SN12C renal were 16 µM and 10.9 µM, respectively.
Turning to `CC(C)=NO.CC(C)=NO.CC(C)=NO.CC(C)=NO.[Ti]`, the GI50 in the assay with A549 NSCLC, in the assay on ACHN renal, in the assay on COLO 205 colon, in the assay on KM12 colon, with RPMI-8226 leukemia and in the assay on SF-295 CNS was above 100 µM throughout. Besides, the GI50 in the assay on SK-MEL-2 melanoma and in the assay on SN12C renal was above 100 µM each time. Besides, the TGI in the assay on A549 NSCLC, in the assay with ACHN renal, in the assay on COLO 205 colon, with KM12 colon, with RPMI-8226 leukemia and in the assay with SF-295 CNS was above 100 µM each time. Further, the TGI in the assay with SK-MEL-2 melanoma and in the assay on SN12C renal was above 100 µM in each case.
Regarding `Cc1cccc2c1Oc1ncccc1C2NC(=O)CN(C)C` (centres undefined), the TGI in the assay on A549 NSCLC, in the assay on ACHN renal, with KM12 colon, in the assay with SF-295 CNS, in the assay with SK-MEL-2 melanoma and in the assay with SN12C renal was above 10 µM each time.
Turning to `Cn1c(=O)c(-c2c(Cl)cccc2Cl)cc2cnc(Nc3ccc(N4CCOCC4)cc3)nc21`, the GI50 in the assay with A549 NSCLC is 0.666 µM; with COLO 205 colon, below 0.0125 µM; in the assay with HCT-116 colon, below 0.01 µM; in the assay on KM12 colon, 1.38 µM; with RPMI-8226 leukemia, 0.356 µM; in the assay on SF-295 CNS it was 0.2 µM. Further, the figures for the GI50 in the assay with SK-MEL-2 melanoma and in the assay on SN12C renal were 2.48 µM and 0.129 µM, respectively. Moreover, the TGI in the assay on COLO 205 colon was 0.477 µM; in the assay with HCT-116 colon it was 0.148 µM; with KM12 colon, 5.09 µM; with RPMI-8226 leukemia, 1.78 µM; in the assay with SF-295 CNS, above 100 µM; in the assay on SK-MEL-2 melanoma, above 100 µM. The same compound registered a TGI in the assay on SN12C renal of 4.65 µM.
`Cn1nc(-c2ccccc2)c(C(=O)/C=C/c2ccccc2)c(N2CCCC2)c1=O`: the TGI with A549 NSCLC is above 100 µM; with ACHN renal, 41.5 µM; in the assay with COLO 205 colon it was 30 µM; with HCT-116 colon, 19.2 µM; in the assay with RPMI-8226 leukemia, 29.3 µM; with SN12C renal, 77.6 µM.
